Assay results as given in patent publication US10913738B2 (BRISTOL-MYERS SQUIBB COMPANY, priority 2017, dated 2021).
Where two headings read alike, the source gives them in different places.

How the values were obtained:
[1] = target: T1, His-GST-TVMV-hRIPK1(1-324) (Homo sapiens, UniProt Q13546); assay: RIPK1 HTRF Binding Assay
T1 construct: The coding region of human RIPK1(1-324) flanked by NdeI site at 5′ end; made in house; host or cells: Spodoptera frugiperda (Sf9) insect cells, baculovirus
T1 sequence (Q13546 1-324): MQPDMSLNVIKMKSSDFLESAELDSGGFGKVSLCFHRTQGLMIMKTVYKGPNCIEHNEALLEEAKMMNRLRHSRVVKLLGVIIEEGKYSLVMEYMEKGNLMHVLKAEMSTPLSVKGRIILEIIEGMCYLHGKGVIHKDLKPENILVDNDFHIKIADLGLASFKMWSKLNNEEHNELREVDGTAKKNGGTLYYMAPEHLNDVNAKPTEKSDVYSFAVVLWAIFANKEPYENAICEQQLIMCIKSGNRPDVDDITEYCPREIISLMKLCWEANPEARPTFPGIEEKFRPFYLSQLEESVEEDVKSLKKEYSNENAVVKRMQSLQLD

[2] = system: MLKL phosphorylation in HT29-L23 human colorectal adenocarcinoma cells; assay: MLKL Phosphorylation High-Content Assay; type: cell-based; settings: Homo sapiens
In short: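 Cells incubated six hours at 37° C., then phospho-MLKL (S358) immunostained overnight at 4° C. and imaged by high-content microscopy. Phosphorylation quantified as mean circ-ring average intensity ratio; IC50 and Ymax from 4-parameter logistic fits.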

[3] = x marks IC50 class 20-200 nM, read-out: RIPK1 HTRF binding 20-200 nM
[4] = x marks IC50 class 20-200 nM, read-out: pMLKL cell activity 20-200 nM
[5] = x marks IC50 class <20 nM, read-out: RIPK1 HTRF binding <20 nM
[6] = x marks IC50 class >200 nM, read-out: pMLKL cell activity >200 nM
[7] = x marks IC50 class <20 nM, read-out: pMLKL cell activity <20 nM

Structure (SMILES) | IC50 [1, 3] [nM] | IC50 [2, 4] [nM] | IC50 [1, 5] [nM] | IC50 [2, 6] [nM] | IC50 [2, 7] [nM]
Cc1cnc(C(=O)NCc2cc(OC(F)(F)F)ccc2F)cc1-c1ccn2nc(N)nc2c1 [Example 399, 4-(2-amino-[1,2,4]triazolo[1,5-a]pyridin-7-yl)-N-(2-fluoro-5-(trifluoromethoxy)benzyl)-5-methylpicolinamide] | 20 to 200 | 20 to 200 | – | – | –
COc1ncc(-c2ccn3nc(N)nc3c2)cc1C(=O)NCc1cc(F)cc(F)c1O[C@H]1CCOC1 [Example 360, (S)-5-(2-amino-[1,2,4]triazolo[1,5-a]pyridin-7-yl)-N-(3,5-difluoro-2-((tetrahydrofuran-3-yl)oxy)benzyl)-2-methoxynicotinamide] | – | 20 to 200 | < 20 | – | –
Cc1nc(C)c(-c2ccn3nc(N)nc3c2)cc1C(=O)NCc1c(F)cccc1OCC1CCCC1 [Example 180, 5-12-amino-[1,2,4]triazolo[1,5-a]pyridin-7-yl}-N-{[2-(cyclopentylmethoxy)-6-fluorophenyllmethyl}-2,6-dimethylpyridine-3-carboxamide] | – | 20 to 200 | < 20 | – | –
Cc1cnc(-c2ccn3nc(N)nc3c2)cc1C(=O)NCCC(C)c1ccccc1 (stereo not shown) [Example 393, 2-(2-amino-[1,2,4]triazolo[1,5-a]pyridin-7-yl)-5-methyl-N-(3-phenylbutyl)isonicotinamide] | – | 20 to 200 | < 20 | – | –
Nc1nc2cc(-c3cc(C(=O)Nc4cnn(Cc5ccccc5)c4)c4cc(F)ccc4n3)ccn2n1 [Example 68, 2-{2-Amino-[1,2,4]triazolo[1,5-a]pyridin-7-yl}-N-(1-benzyl-1H-pyrazol-4-yl)-6-fluoroquinoline-4-carboxamide] | 20 to 200 | 20 to 200 | – | – | –
Cc1cnc(-c2ccn3nc(N)nc3c2)cc1C(=O)N[C@H](C)c1cc(OC(F)(F)F)ccc1F [Example 392, (R)-2-(2-amino-[1,2,4]triazolo[1,5-a]pyridin-7-yl)-N-(1-(2-fluoro-5-(trifluoromethoxy)phenyl)ethyl)-5-methylisonicotinamide] | – | 20 to 200 | < 20 | – | –
CCOc1ncc(-c2ccn3nc(N)nc3c2)cc1C(=O)NCC[C@H](O)c1ccc(Cl)cc1 [Example 278, 5-{2-amino-[1,2,4]triazolo[1,5-a]pyridin-7-yl}-N-[(3S)-3-(4-chlorophenyl)-3-hydroxypropyl]-2-ethoxypyridine-3-carboxamide] | 20 to 200 | – | – | > 200 | –
Cc1cnc(C(=O)NCCC(C)c2ccccc2)cc1-c1ccn2nc(N)nc2c1 (stereo not shown) [Example 400, 4-(2-amino-[1,2,4]triazolo[1,5-a]pyridin-7-yl)-5-methyl-N-(3-phenylbutyl)picolinamide] | – | 20 to 200 | < 20 | – | –
COc1ncc(-c2ccn3nc(N)nc3c2)cc1C(=O)NCc1cccc(OC2CCCC2)c1 [Example 45, 5-{2-Amino-[1,2,4]triazolo[1,5-a]pyridin-7-yl}-N-{[3-(cyclopentyloxy)phenyl]methyl}-2-methoxypyridine-3-carboxamide] | 20 to 200 | – | – | > 200 | –
CCOc1ncc(-c2ccn3nc(N)nc3c2)cc1C(=O)NCc1cc(F)cc(F)c1OCC1CCCC1 [Example 14, 5-{2-Amino-[1,2,4]triazolo[1,5-a]pyridin-7-yl}-N-{[2-(cyclopentylmethoxy)-3,5-difluorophenyl]methyl}-2-ethoxypyridine-3-carboxamide] | – | 20 to 200 | < 20 | – | –
COc1nc(C)c(-c2ccn3nc(N)nc3c2)cc1C(=O)NCc1cccc(F)c1CN1CCOCC1 [Example 355, 5-(2-amino-[1,2,4]triazolo[1,5-a]pyridin-7-yl)-N-(3-fluoro-2-(morpholinomethyl)benzyl)-2-methoxy-6-methylnicotinamide] | – | 20 to 200 | < 20 | – | –
COc1ncc(-c2ccn3nc(N)nc3c2)cc1C(=O)Nc1cnn(C(c2ccccc2)c2ccccc2)c1 [Example 107, 5-{2-amino-[1,2,4]triazolo[1,5-a]pyridin-7-yl}-N-[1-(diphenylmethyl)-1H-pyrazol-4-yl]-2-methoxypyridine-3-carboxamide] | 20 to 200 | – | – | > 200 | –
COc1ncc(-c2ccn3nc(N)nc3c2)cc1C(=O)NCc1ccccc1O[C@@H]1C[C@H]2CC[C@@H]1C2 [Example 30, 5-{2-Amino-[1,2,4]triazolo[1,5-a]pyridin-7-yl}-N-({2-[(1R,2R,4S)-bicyclo[2.2.1]heptan-2-yloxy]phenyl}methyl)-2-methoxypyridine-3-carboxamide] | 20 to 200 | 20 to 200 | – | – | –
Cc1ncc(-c2ccn3nc(N)nc3c2)cc1C(=O)NCc1ncccc1OC1CCCC1 [Example 241, 5-{2-amino-[1,2,4]triazolo[1,5-a]pyridin-7-yl}-N-{[3-(cyclopentyloxy)pyridin-2-yl]methyl}-2-methylpyridine-3-carboxamide] | – | 20 to 200 | < 20 | – | –
CCOc1ncc(-c2ccn3nc(N)nc3c2)cc1C(=O)NCc1ccccc1SCC(F)(F)F [Example 265, 5-{2-amino-[1,2,4]triazolo[1,5-a]pyridin-7-yl}-2-ethoxy-N-({2-[(2,2,2-trifluoroethyl)sulfanyl]phenyl}methyl)pyridine-3-carboxamide] | 20 to 200 | – | – | > 200 | –
[2H]C([2H])([2H])[C@@H](NC(=O)c1cc(-c2ccn3nc(N)nc3c2)c(C)nc1C)c1cc(OC(F)(F)F)ccc1F [Example 286, (R)-5-(2-amino-[1,2,4]triazolo[1,5-a]pyridin-7-yl)-N-(1-(2-fluoro-5-(trifluoromethoxy)phenyl)ethyl-2,2,2-d3)-2,6-dimethylnicotinamide] | – | 20 to 200 | < 20 | – | –
COc1ncc(-c2ccn3nc(N)nc3c2)cc1NC(=O)Cc1cccc(OC(F)(F)F)c1 [Example 415, N-(5-(2-amino-[1,2,4]triazolo[1,5-a]pyridin-7-yl)-2-methoxypyridin-3-yl)-2-(3-(trifluoromethoxy)phenyl)acetamide] | 20 to 200 | 20 to 200 | – | – | –
COc1nc(C)c(-c2ccn3nc(N)nc3c2)cc1C(=O)NCc1c(F)cccc1OCC1CC1 [Example 215, 5-{2-amino-[1,2,4]triazolo[1,5-a]pyridin-7-yl}-N-{[2-(cyclopropylmethoxy)-6-fluorophenyl]methyl}-2-methoxy-6-methylpyridine-3-carboxamide] | – | – | < 20 | – | < 20
COc1ncc(C(=O)NCc2c(F)cccc2OCC2CC2)cc1-c1ccn2nc(N)nc2c1 [Example 26, 5-{2-Amino-[1,2,4]triazolo[1,5-a]pyridin-7-yl}-N-{[2-(cyclopropylmethoxy)-6-fluorophenyl]methyl}-6-methoxypyridine-3-carboxamide] | – | 20 to 200 | < 20 | – | –
Cc1ncc(-c2ccn3nc(N)nc3c2)cc1C(=O)NCc1cc(F)ccc1OCC1CCCC1 [Example 20, 5-{2-Amino-[1,2,4]triazolo[1,5-a]pyridin-7-yl}-N-{[2-(cyclopentylmethoxy)-5-fluorophenyl]methyl}-2-methylpyridine-3-carboxamide] | – | 20 to 200 | < 20 | – | –
CCOc1ncc(-c2ccn3nc(N)nc3c2)cc1C(=O)NCc1c(F)cc(F)cc1OCC1CCCC1 [Example 13, 5-{2-Amino-[1,2,4]triazolo[1,5-a]pyridin-7-yl}-N-{[2-(cyclopentylmethoxy)-4,6-difluorophenyl]methyl}-2-ethoxypyridine-3-carboxamide] | 20 to 200 | – | – | > 200 | –
COc1ncc(-c2ccn3nc(N)nc3c2)cc1C(=O)NCc1ccccc1OC1CCOC1 (stereo not shown) [Example 140, 5-{2-amino-[1,2,4]triazolo[1,5-a]pyridin-7-yl}-2-methoxy-N-{[2-(oxolan-3-yloxy)phenyl]methyl}pyridine-3-carboxamide] | – | 20 to 200 | < 20 | – | –
[2H]C([2H])([2H])Oc1ncc(-c2ccn3nc(N)nc3c2)cc1C(=O)NCc1cc(F)cc(F)c1OCC1CC1 [Example 94, 5-{2-amino-[1,2,4]triazolo[1,5-a]pyridin-7-yl}-N-{[2-(cyclopropylmethoxy)-3,5-difluorophenyl]methyl}-2-(deutero)methoxypyridine-3-carboxamide] | – | – | < 20 | – | < 20
[2H]C([2H])([2H])Oc1nc(C)c(-c2ccn3nc(N)nc3c2)cc1C(=O)NCc1cc(F)cc(F)c1OC([2H])([2H])C1CC1 [Example 282, 5-(2-Amino-[1,2,4]triazolo[1,5-a]pyridin-7-yl)-N-(2-(cyclopropylmethoxy-d2)-3,5-difluorobenzyl)-2-(methoxy-d3)-6-methylnicotinamide] | – | – | < 20 | – | < 20
Cc1ncc(-c2ccn3nc(N)nc3c2)cc1C(=O)NCc1c(F)cccc1OCC1CCCC1 [Example 15, 5-{2-Amino-[1,2,4]triazolo[1,5-a]pyridin-7-yl}-N-{[2-(cyclopentylmethoxy)-6-fluorophenyl]methyl}-2-methylpyridine-3-carboxamide] | – | – | < 20 | – | < 20
COc1ncc(-c2ccn3nc(N)nc3c2)cc1C(=O)NCc1cc(F)cc(F)c1OC1CC(C)OC(C)C1 (stereo not shown) [Example 362, 5-(2-amino-[1,2,4]triazolo[1,5-a]pyridin-7-yl)-N-(2-((2,6-dimethyltetrahydro-2H-pyran-4-yl)oxy)-3,5-difluorobenzyl)-2-methoxynicotinamide] | 20 to 200 | 20 to 200 | – | – | –
